# Calls of active or inactive are those of the source.
# Legend:
# [1] = biological target: Neuropeptide Y receptor type 1 (Homo sapiens, UniProt P25929); assay: Fluorescence-based counterscreen for agonists of NPY-Y2: cell-based high-throughput dose response assay for agonists of NPY-Y1.; assay type: functional
# [2] = biological target: Neuropeptide Y receptor type 2 (Homo sapiens, UniProt P49146); assay: Fluorescence-based cell-based high-throughput dose response assay for agonists of NPY-Y2. [Related pubchem assays: 1703 (Screening assay (CNGC inhibitors).), 1359 (Screening assay (NPY-Y2 potentiators or agonists).), 1304 (Screening assay (NPY-Y1 potentiators or agonists).), 1710 (Screening assay (NPY-Y2 agonists).), 1791 (Summary AID.)]; assay type: functional
# [3] = system: HEK293; assay: Fluorescence-based counterscreen for potentiators or agonists of NPY-Y2: cell-based high-throughput dose response assay to identify inhibitors of cyclic nucleotide gated ion channel (CNGC) activity. In this assay, the parental HEK293 cell line transfected with a cyclic-nucleotide gated ion channel (CNGC)-based cAMP sensor is used to measure inhibition of isoproterenol-induced CNGC activity by test compound.; assay type: functional; settings: Homo sapiens;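 note: stimulus is 1 µM isoproterenol at EC100 plus PDE inhibitor Ro 20-1724 at 25 µM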
# [4] = biological target: Eukaryotic translation initiation factor 4H (Homo sapiens, UniProt Q15056); assay: eIF4H binding inhibition – biochemical, uHTS, fluorescence polarization, translation initiation inhibitor project, primary screen (AID 2012)
# [5] = biological target: Polyadenylate-binding protein 1 (Homo sapiens, UniProt P11940); assay: blockers of PABP interaction with poly(A) – biochemical, fluorescence polarization, […] (AID 2014)
# [6] = A cytotoxicity screen of small molecule inhibitors of the PhoP region in Salmonella typhi identified in the primary screen. [Related pubchem assays: 1850, 1864, 1985 ]; assay type: functional
# Sequence of Neuropeptide Y receptor type 1 (P25929 whole entry): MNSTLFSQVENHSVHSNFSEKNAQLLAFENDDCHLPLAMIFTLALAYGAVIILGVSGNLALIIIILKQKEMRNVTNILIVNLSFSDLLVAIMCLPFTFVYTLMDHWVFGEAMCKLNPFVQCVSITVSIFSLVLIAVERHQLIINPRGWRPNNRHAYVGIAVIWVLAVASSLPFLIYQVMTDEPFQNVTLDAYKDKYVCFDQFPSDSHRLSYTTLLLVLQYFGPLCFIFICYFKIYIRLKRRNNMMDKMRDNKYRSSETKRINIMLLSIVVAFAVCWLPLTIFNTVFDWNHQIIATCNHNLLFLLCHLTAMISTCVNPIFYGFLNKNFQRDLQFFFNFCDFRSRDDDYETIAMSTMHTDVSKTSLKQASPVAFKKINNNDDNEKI
# Sequence of Neuropeptide Y receptor type 2 (P49146 whole entry): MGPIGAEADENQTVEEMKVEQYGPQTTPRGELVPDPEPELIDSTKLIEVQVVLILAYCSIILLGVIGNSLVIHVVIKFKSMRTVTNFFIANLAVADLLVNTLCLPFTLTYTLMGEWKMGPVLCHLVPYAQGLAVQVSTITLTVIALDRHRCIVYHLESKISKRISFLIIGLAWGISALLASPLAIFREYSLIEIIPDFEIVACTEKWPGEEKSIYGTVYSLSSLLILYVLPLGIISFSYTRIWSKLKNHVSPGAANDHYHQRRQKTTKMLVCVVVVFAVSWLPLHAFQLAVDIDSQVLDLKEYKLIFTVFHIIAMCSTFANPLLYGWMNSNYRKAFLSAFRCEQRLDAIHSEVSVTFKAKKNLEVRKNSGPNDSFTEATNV
# Sequence of Polyadenylate-binding protein 1 (P11940 whole entry): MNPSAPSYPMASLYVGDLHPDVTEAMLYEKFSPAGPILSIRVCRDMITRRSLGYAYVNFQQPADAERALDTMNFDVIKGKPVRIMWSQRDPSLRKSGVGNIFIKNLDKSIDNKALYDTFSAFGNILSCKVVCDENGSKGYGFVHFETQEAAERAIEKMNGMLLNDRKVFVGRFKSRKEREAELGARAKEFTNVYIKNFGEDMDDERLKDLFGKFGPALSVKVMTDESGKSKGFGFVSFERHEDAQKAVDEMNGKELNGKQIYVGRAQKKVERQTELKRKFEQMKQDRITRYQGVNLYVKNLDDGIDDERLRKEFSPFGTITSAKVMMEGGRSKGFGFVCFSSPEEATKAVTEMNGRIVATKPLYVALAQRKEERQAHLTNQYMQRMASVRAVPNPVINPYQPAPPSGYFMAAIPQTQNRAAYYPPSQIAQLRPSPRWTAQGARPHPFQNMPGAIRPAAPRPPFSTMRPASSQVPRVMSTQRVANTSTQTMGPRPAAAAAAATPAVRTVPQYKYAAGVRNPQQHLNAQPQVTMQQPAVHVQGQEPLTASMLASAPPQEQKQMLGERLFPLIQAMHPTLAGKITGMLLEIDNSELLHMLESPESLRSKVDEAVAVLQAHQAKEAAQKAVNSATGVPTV
Compound,EC50 [1],EC50 [2],EC50 [3],EC50 [6],further results
CC(C)c1nnc(NC(=O)CCC(=O)Nc2ccc3c[nH]nc3c2)s1,> 35.4 µM (not active),> 35.4 µM (not active),> 35.4 µM (not active),–,–
CCN(CC)C(=O)CC(c1ccc2c(c1)OCO2)c1c(OC)cc(OC)c2ccc(=O)oc12 (stereo not given),–,–,–,–,IC50 [4]: 10.3 µM (active); IC50 [5]: 20.1 µM (active)
CCc1nc(C)ccc1OCC(=O)N(CC)CC,–,–,–,> 50 µM (active),–
CC(Nc1ccccc1)c1cccnc1 (stereo not given),> 35.4 µM (not active),> 35.4 µM (not active),> 35.4 µM (not active),–,–
Clc1ccc(Nc2nc(C3CC3)cs2)cc1,–,–,–,> 50 µM (active),–

# — ChEMBL document CHEMBL1201862, “PubChem BioAssay data set” (2004)
